In patent US20020137929A1, “1 - (3-heterocyclylphenyl) isothiourea, -isourea, -guanidine and -amidine herbicidal agents” (Intellectual Property Department, BASF Aktiengesellschaft, priority 1998, published 2002):

Key:
ECHCG (Barnyardgrass) [1] = assay: Preemergence herbicidal evaluation; format: in vivo, Echinochloa crus-galli; conditions: rated 4-5 weeks after treatment
How it was run: (§1)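 Each species is sown separately in potting soil over roughly an inch of soil before any emergence. The soil surface then receives an aqueous acetone spray delivering about 0.0156 to 0.500 kg/ha of compound. After four to five weeks, injury is scored from 0 to 9 relative to a control.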

CASOB (Sicklepod) = assay: Preemergence herbicidal evaluation; format: in vivo, Cassia obtusifolia; conditions: rated 4-5 weeks after treatment
How it was run: as §1

[2] = test system: TRZAWR (Wheat, Winter, cv Riband); assay: Preemergence herbicidal evaluation; format: in vivo, Triticum aestivum; conditions: rated 4-5 weeks after treatment
How it was run: as §1

ZEAMX (Corn, Field) [3] = assay: Postemergence herbicidal evaluation; format: in vivo, Zea mays
How it was run: (§2)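 Scores (0–9) reflect plant stand, vigor, malformation, size, chlorosis and general appearance relative to control, read 4 to 5 weeks after treatment and averaged where tests were repeated. Application: about 0.0156–0.500 kg/ha sprayed at 40 psi onto two-week seedlings.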

[4] = test system: IPOHE (Morningglory, Ivyleaf); assay: Preemergence herbicidal evaluation; format: in vivo, Ipomoea hederacea; conditions: rated 4-5 weeks after treatment
How it was run: as §1

ZEAMX (Corn, Field) [5] = assay: Preemergence herbicidal evaluation; format: in vivo, Zea mays; conditions: rated 4-5 weeks after treatment
How it was run: as §1

CYPSE (Flatsedge) = assay: Postemergence weed control under flooded paddy conditions; format: in vivo, Cyperus serotinus; conditions: postemergence weeds, 3-4 weeks after treatment
How it was run: (§3)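 Injury ratings (0–9 scale covering stand, vigor, malformation, size, chlorosis and overall appearance versus control) were made three to four weeks after treatment. Test material, about 0.0313 to 0.500 kg/ha a.i. in 50/50 v/v aqueous/acetone, was added to flood water 1.5 to 3 cm deep over 3 to 5 cm weeds and 1.5 to 2.5 leaf rice.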

CYPIR (Rice Flatsedge) = assay: as above; format: in vivo, Cyperus iria; conditions: postemergence weeds, 3-4 weeks after treatment
How it was run: as §3

ECHCG (Barnyardgrass) [6] = assay: Postemergence herbicidal evaluation; format: in vivo, Echinochloa crus-galli
How it was run: as §2

[7] = test system: GLXMAW (Soybean, Williams); assay: Preemergence herbicidal evaluation; format: in vivo, Glycine max, (L.) Merr. cv Williams; conditions: rated 4-5 weeks after treatment
How it was run: as §1

[8] = test system: CHEAL (Lambsquarters, Common); assay: Preemergence herbicidal evaluation; format: in vivo, Chenopodium album; conditions: rated 4-5 weeks after treatment
How it was run: as §1

ABUTH (Velvetleaf) [9] = assay: Postemergence herbicidal evaluation; format: in vivo, Abutilon theophrasti
How it was run: as §2

[10] = test system: CHEAL (Lambsquarters, Common); assay: Postemergence herbicidal evaluation; format: in vivo, Chenopodium album
How it was run: as §2

ABUTH (Velvetleaf) [11] = assay: Preemergence herbicidal evaluation; format: in vivo, Abutilon theophrasti; conditions: rated 4-5 weeks after treatment
How it was run: as §1

ORYSAT (Rice, Tebonnet) = assay: Postemergence herbicidal evaluation; format: in vivo, Oryza sativa, (L.) Tebonnet
How it was run: as §2

[12] = test system: IPOHE (Morningglory, Ivyleaf); assay: Postemergence herbicidal evaluation; format: in vivo, Ipomoea hederacea
How it was run: as §2

SETVI (Foxtail, Green) = assay: Postemergence herbicidal evaluation; format: in vivo, Setaria viridis
How it was run: as §2

O=C(O)CC1SC(=Nc2cc(N3C(=O)C4=C(CCCC4)C3=O)c(F)cc2Cl)N(CC(=O)O)C1=O (stereo not shown) [Compound 48, 2-{[2-Chloro-5-(1-cyclohexene-1,2-dicarboximido)-4-fluorophenyl]imino}-4-oxo-3,5-thiazolidinediacetic acid]
Preemergence herbicidal rating ECHCG (ECHCG (Barnyardgrass) [1]; rate 0.0156 kg/ha): 0.0
Preemergence herbicidal rating ECHCG (ECHCG (Barnyardgrass) [1]; rate 0.0313 kg/ha): 0.0
Preemergence herbicidal rating ECHCG (ECHCG (Barnyardgrass) [1]; rate 0.0625 kg/ha): 0.0
Preemergence herbicidal rating ECHCG (ECHCG (Barnyardgrass) [1]; rate 0.1250 kg/ha): 0.0
Preemergence herbicidal rating ECHCG (ECHCG (Barnyardgrass) [1]; rate 0.2500 kg/ha): 0.0
Preemergence herbicidal rating CASOB (CASOB (Sicklepod); rate 0.0156 kg/ha): 0.0
Preemergence herbicidal rating CASOB (CASOB (Sicklepod); rate 0.0313 kg/ha): 0.0
Preemergence herbicidal rating CASOB (CASOB (Sicklepod); rate 0.0625 kg/ha): 0.0
Preemergence herbicidal rating CASOB (CASOB (Sicklepod); rate 0.1250 kg/ha): 0.0
Preemergence herbicidal rating CASOB (CASOB (Sicklepod); rate 0.2500 kg/ha): 3.0
Preemergence herbicidal rating TRZAWR ([2]; rate 0.0156 kg/ha): 0.0
Preemergence herbicidal rating TRZAWR ([2]; rate 0.0313 kg/ha): 0.0
Preemergence herbicidal rating TRZAWR ([2]; rate 0.0625 kg/ha): 0.0
Preemergence herbicidal rating TRZAWR ([2]; rate 0.1250 kg/ha): 0.0
Preemergence herbicidal rating TRZAWR ([2]; rate 0.2500 kg/ha): 2.0
Postemergence herbicidal rating ZEAMX (ZEAMX (Corn, Field) [3]; Rate 0.0156 kg/ha): 5.5
Postemergence herbicidal rating ZEAMX (ZEAMX (Corn, Field) [3]; Rate 0.0313 kg/ha): 5.5
Postemergence herbicidal rating ZEAMX (ZEAMX (Corn, Field) [3]; Rate 0.0625 kg/ha): 6.5
Preemergence herbicidal rating IPOHE ([4]; rate 0.0156 kg/ha): 0.0
Preemergence herbicidal rating IPOHE ([4]; rate 0.0313 kg/ha): 0.0
Preemergence herbicidal rating IPOHE ([4]; rate 0.0625 kg/ha): 0.0
Preemergence herbicidal rating IPOHE ([4]; rate 0.2500 kg/ha): 0.0
Preemergence herbicidal rating ZEAMX (ZEAMX (Corn, Field) [5]; rate 0.0156 kg/ha): 0.0
Preemergence herbicidal rating ZEAMX (ZEAMX (Corn, Field) [5]; rate 0.0313 kg/ha): 0.0
Preemergence herbicidal rating ZEAMX (ZEAMX (Corn, Field) [5]; rate 0.0625 kg/ha): 0.0
Preemergence herbicidal rating ZEAMX (ZEAMX (Corn, Field) [5]; rate 0.1250 kg/ha): 0.0
Preemergence herbicidal rating ZEAMX (ZEAMX (Corn, Field) [5]; rate 0.2500 kg/ha): 2.0
Herbicidal rating CYPSE (CYPSE (Flatsedge); rate 0.1250 kg/ha): 0.0
Herbicidal rating CYPSE (CYPSE (Flatsedge); rate 0.2500 kg/ha): 0.0
Herbicidal rating CYPIR (CYPIR (Rice Flatsedge); rate 0.1250 kg/ha): 2.0
Herbicidal rating CYPIR (CYPIR (Rice Flatsedge); rate 0.2500 kg/ha): 5.0
Postemergence herbicidal rating ECHCG (ECHCG (Barnyardgrass) [6]; Rate 0.0156 kg/ha): 0.0
Postemergence herbicidal rating ECHCG (ECHCG (Barnyardgrass) [6]; Rate 0.0313 kg/ha): 2.0
Postemergence herbicidal rating ECHCG (ECHCG (Barnyardgrass) [6]; Rate 0.0625 kg/ha): 2.0
Preemergence herbicidal rating GLXMAW ([7]; rate 0.0156 kg/ha): 0.0
Preemergence herbicidal rating GLXMAW ([7]; rate 0.0313 kg/ha): 0.0
Preemergence herbicidal rating GLXMAW ([7]; rate 0.0625 kg/ha): 0.0
Preemergence herbicidal rating GLXMAW ([7]; rate 0.1250 kg/ha): 0.0
Preemergence herbicidal rating GLXMAW ([7]; rate 0.2500 kg/ha): 2.0
Preemergence herbicidal rating CHEAL ([8]; rate 0.0156 kg/ha): 9.0
Preemergence herbicidal rating CHEAL ([8]; rate 0.0313 kg/ha): 9.0
Preemergence herbicidal rating CHEAL ([8]; rate 0.0625 kg/ha): 9.0
Preemergence herbicidal rating CHEAL ([8]; rate 0.1250 kg/ha): 9.0
Preemergence herbicidal rating CHEAL ([8]; rate 0.2500 kg/ha): 9.0
Postemergence herbicidal rating ABUTH (ABUTH (Velvetleaf) [9]; Rate 0.0156 kg/ha): 9.0
Postemergence herbicidal rating ABUTH (ABUTH (Velvetleaf) [9]; Rate 0.0313 kg/ha): 9.0
Postemergence herbicidal rating ABUTH (ABUTH (Velvetleaf) [9]; Rate 0.0625 kg/ha): 9.0
Postemergence herbicidal rating CHEAL ([10]; Rate 0.0156 kg/ha): 3.0
Postemergence herbicidal rating CHEAL ([10]; Rate 0.0313 kg/ha): 4.0
Postemergence herbicidal rating CHEAL ([10]; Rate 0.0625 kg/ha): 4.0
Preemergence herbicidal rating ABUTH (ABUTH (Velvetleaf) [11]; rate 0.0156 kg/ha): 0.0
Preemergence herbicidal rating ABUTH (ABUTH (Velvetleaf) [11]; rate 0.0313 kg/ha): 0.0
Preemergence herbicidal rating ABUTH (ABUTH (Velvetleaf) [11]; rate 0.0625 kg/ha): 4.0
Preemergence herbicidal rating ABUTH (ABUTH (Velvetleaf) [11]; rate 0.1250 kg/ha): 9.0
Preemergence herbicidal rating ABUTH (ABUTH (Velvetleaf) [11]; rate 0.2500 kg/ha): 9.0
Postemergence herbicidal rating ORYSAT (ORYSAT (Rice, Tebonnet); Rate 0.0156 kg/ha): 0.5
Postemergence herbicidal rating ORYSAT (ORYSAT (Rice, Tebonnet); Rate 0.0313 kg/ha): 0.5
Postemergence herbicidal rating ORYSAT (ORYSAT (Rice, Tebonnet); Rate 0.0625 kg/ha): 2.0
Postemergence herbicidal rating IPOHE ([12]; Rate 0.0156 kg/ha): 9.0
Postemergence herbicidal rating IPOHE ([12]; Rate 0.0313 kg/ha): 9.0
Postemergence herbicidal rating IPOHE ([12]; Rate 0.0625 kg/ha): 9.0
Postemergence herbicidal rating SETVI (SETVI (Foxtail, Green); Rate 0.0156 kg/ha): 0.0
Postemergence herbicidal rating SETVI (SETVI (Foxtail, Green); Rate 0.0313 kg/ha): 0.0
Postemergence herbicidal rating SETVI (SETVI (Foxtail, Green); Rate 0.0625 kg/ha): 2.0
